Laboratory results: BigSolDB 2.1

O=C(NC[C@H]1CN(c2ccc(N3CCOCC3=O)cc2)C(=O)O1)c1ccc(Cl)s1
solubility (mole fraction)
Settings | 283.15 K | 288.15 K | 293.15 K | 298.15 K | 303.15 K | 308.15 K
in dichloromethane | 0.000254 | 0.00028 | 0.000308 | 0.000338 | 0.00037 | 0.000403
in ethanol | 1.21e-05 | 1.46e-05 | 1.75e-05 | 2.09e-05 | 2.5e-05 | 2.94e-05
in methanol | 2.41e-05 | 2.97e-05 | 3.63e-05 | 4.42e-05 | 5.29e-05 | 6.36e-05
in n-butanol | 5.56e-06 | 7.84e-06 | 1.08e-05 | 1.48e-05 | 2.01e-05 | 2.73e-05
in n-propanol | 7.99e-06 | 1.05e-05 | 1.37e-05 | 1.77e-05 | 2.26e-05 | 2.88e-05
